Measurements from US20090054507A1, “CONTROL OF MALIGNANT CELLS BY KINASE INHIBITION” (CLEVELAND STATE UNIVERSITY, priority 2006, published 2009).

Columns and labels:
[1] = tested on: MEG-01 cells; assay: Annexin V-FITC and PI apoptosis assay, MEG-01; type: cell-based, human
Procedure: Flow cytometric analysis. Cells were analyzed using a FACSCalibur flow cytofluorometer (Becton-Dickinson), with CellQuestPro ver. 3.3 software. The data was further analyzed with FlowJo ver. 6.2, and WinMDI 2.8 software. Proper gating was performed to characterize each cell population (MEG-01 cells and platelets). The population that corresponds to platelets (small, granulated particles), is PI negative because thrombocytes are anucleated cells (only the viable cells were considered) and were distinguished by their capacity to become activated, undergoing shape change in response to agonist and to show phosphatidylserine (PS) exposure when activated. Platelets were further separated from the megakaryocytic cells, by differential centrifugation, considering the size difference between these cell populations (1-5 μm for platelets and 35-150 μm for megakaryocytic cell line MEG-01) and analyzed separately. Voltage and channels settings were adjusted accordingly. Analyzed values were obtained with WinMDI ver. 2.8.
Apoptosis Assays using Flow Cytometry with Annexin V-FITC and propidium iodide (PI). For induction of typical apoptosis, cells were grown in the presence of 1 μM staurosporine (Sigma-Aldrich) for 6 hours. The staurosporine treated cells were stained as follows: control 1 with PI, control 2 with Annexin V-FITC and control 3 both PI and Annexin V-FITC in order to have the brightest controls for compensation and proper collection of the flow cytometry data. Cell necrosis was induced by heat shock (65° C. for 30 minutes). The stained control, both PI and Annexin V-FITC labeled, was then used as the reference in establishing the level of apoptosis induced by the treatments. Data was collected on logarithmic modes, two-colors. Annexin V-FITC corresponds to FL1 H channel, and PI to FL3H or FL2H channels.
Annexin V-FITC and PI apoptosis assay staining protocol. Apoptosis Annexin V-FITC and PI kit from BD Biosciences, CA, USA, was used. 10^5-10^6 cells were stained with 50 μg/ml PI and with 0.5 μg/ml FITC-labeled Annexin V using the staining protocol provided by the supplier. Samples were then analyzed immediately by flow cytometry.

[2] = tested on: platelets from MEG-01 cells; assay: Function assays of platelets released from treated MEG-01 cells; type: cell-based, human
Procedure: Platelets isolation from culture. Platelets were separated from the megakaryocytic cells, by differential centrifugation and analyzed separately. Suspension cells were centrifuged first at 100 g-150 g for 15 minutes, and then the platelets rich supernatant was kept and centrifuged again at 800 g for 15 minutes. For impeding artefactual aggregation of platelets in the control, EDTA and RGD or RGDS were added in the cell suspension from the beginning of the centrifugations, and with each centrifugation step. 1 mg/ml RGD or RGDS and 10 mM EDTA final concentrations, were used for negative control (inactivated) or resting platelets. Platelets were activated with different agonists: 100 nM PMA, 1 μg/ml TRAP and 0.5 U/ml human a-thrombin. For most of assays TRAP 1 μg/ml was used. For scanning electron microscopy experiment (formation of the fibrin clot) human a-thrombin was used. For both sample sets, activated (with TRAP) and inactivated (EDTA, RGD), platelets collected from MEG-01 cultures incubated with 10 μM DMAT for 4 days were utilized.
PAC-I-FITC binding due to platelet activation flow cytometric assay. Monoclonal antibody PAC-1 recognizes an epitope on the glycoprotein αIIbβ3 of activated platelets. […]
Fibrinogen-Alexa Fluor 488 binding to platelets flow cytometric assay. […] Final concentration of fibrinogen conjugated to Alexa Fluor 488 was determined spectrophotometrically. […]

[3] = tested on: MEG-01 xenografts; assay: Tail-bleeding assay in MEG-01 xenograft mice; type: in vivo; conditions: DMAT treated xenograft mice vs normal mice or control mice
Procedure: At the end of the trial, tail-bleeding times assay was performed and blood was collected for blood counts from live and anesthetized mice. After these experiments were completed mice were sacrificed and tumors and organs were collected. Samples were fixed in formalin for further processing.
Tail-bleeding assay. Tail-bleeding times are important to investigate whether the platelets could establish hemostasis in vivo. Platelet aggregation and clot retraction in response to physiologic agonists adenosine diphosphate (ADP), epinephrine, and thrombin will affect tail-bleeding times.
Normal tail-bleeding times are an average of 1.5-2 minutes in C57BL mouse strain.
Pre-warm tubes of saline (PBS) at 37° C. and maintained at this temperature during the measurements were used. Inhalation of isoflurane vapor or, alternatively, intraperitoneal injection of avertin was used to induce general anesthesia. Using a sharp new razor or scalpel blade, tails were cut exactly 0.5 cm of the distal tip of the tail of the adult mouse and immediately inserted into the pre-warmed tube of saline. A stopclock was started at this time. The tail was hold gently, near its base, to avoid a “tourniquet effect.” Venous blood flowing into the tube can be observed and can it can be detected when this bleeding stops. The stopclock provides an accurate bleeding time.

[4] = tested on: MCF-7 cells; assay: Anchorage independence in soft agar, MCF-7; type: cell-based, human; conditions: DMAT 10 μM, one week

SMILES: CN(C)c1nc2c(Br)c(Br)c(Br)c(Br)c2[nH]1 [DMAT, 2-dimethylamino-4,5,6,7-tetrabromo-1H-benzimidazole]
- cytotoxicity (necrosis) in MEG-01 cells [1]: without being cytotoxic
- level of necrotic cells ([1]; 20 μM DMAT, 24 hours, control untreated 0.87%): 0.39%
- level of apoptotic cells ([1]; 20 μM DMAT, 24 hours, control untreated 8.7%): 19%
- dose and time dependence of induced apoptosis and phenotype change ([1]; 24 to 96 hours): dose and time dependent
- fibrin clot formation by platelets from treated MEG-01 cells ([2]; DMAT 10 μM at 72 hours, human thrombin 0.5 U/ml): form a fibrin clot
- function of platelets obtained from treated MEG-01 cells ([2]; response to human thrombin 0.5 U/ml): functional
- tail bleeding times [3]: in certain instances, longer
- colonies in soft agar [4]: much smaller and fewer colonies
